The values that follow come from patent publication US20230085307A1, “PYRIDAZINONE COMPOUND AND HERBICIDE” (NISSAN CHEMICAL CORPORATION, priority 2019, published 2023).

The first assay has as its system blackgrass. Kind of assay: Test Example 5: herbicidal effect by foliage application, plastic box (Table 20, symbol J). The class given is in vivo, blackgrass (Alopecurus myosuroides). The following applies: foliage application, 320 g/ha, three weeks after application. An outline of the steps:
(§1)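 Sow seeds spot-wise in sterilized diluvial soil; cover with ~1.5 cm soil. Grow 14 days in greenhouse, 25° C. to 30° C. Spray foliage with emulsion diluted to predetermined amount. Rate effect after 3 weeks.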
On to `COc1ccccc1-c1sc2cc(F)ccc2c1-c1c(OS(=O)(=O)N(C)C)c(C)nn(C)c1=O` [3-028], for which the “J: blackgrass, herbicidal effect grade” value is 4 (Herbicidal rate of 70% or more and less than 90%).

As to `CCCC(=O)Oc1c(C)nn(C)c(=O)c1-c1c(-c2ccc(Cl)cc2)sc2cc(Cl)ccc12` [3-034], the “J: blackgrass, herbicidal effect grade” value is 4 (Herbicidal rate of 70% or more and less than 90%).

A further assay has as its system barnyard grass. Nature of the assay: Test Example 4: herbicidal effect by soil treatment (Table 19, symbol H). The assay is classed as in vivo, barnyard grass (Echinochloa crus-galli). The following applies: amount of applied herbicide 320 g/ha. An outline of the steps: (§2)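 Soil-surface application: an emulsion agent diluted with water to the predetermined dose is sprayed uniformly over seeds lying under roughly 1.5 cm of sterilized diluvial soil. Boxes stay in a greenhouse at 25° C. to 30° C. Three weeks later, each species is graded on previously defined criteria.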
`COc1ccccc1-c1sc2cc(F)ccc2c1-c1c(OS(=O)(=O)N(C)C)c(C)nn(C)c1=O` [3-028]: the “H: barnyard grass, herbicidal effect grade” value was 0 (Herbicidal rate of 5% or less (almost no effect)).

For the molecule `CCCC(=O)Oc1c(C)nn(C)c(=O)c1-c1c(-c2ccc(Cl)cc2)sc2cc(Cl)ccc12` [3-034], the “H: barnyard grass, herbicidal effect grade” value was 0 (Herbicidal rate of 5% or less (almost no effect)).

The subject of the next assay is Italian ryegrass. Kind of assay: Test Example 5: herbicidal effect by foliage application, plastic box (Table 20, symbol K). The class given is in vivo, Italian ryegrass (Lolium multiflorum). The following applies: foliage application, 320 g/ha, three weeks after application. An outline of the steps:
as §1
With `COc1ccccc1-c1sc2cc(F)ccc2c1-c1c(OS(=O)(=O)N(C)C)c(C)nn(C)c1=O` [3-028], the “K: Italian ryegrass, herbicidal effect grade” value was 4 (Herbicidal rate of 70% or more and less than 90%).

Consider `CCCC(=O)Oc1c(C)nn(C)c(=O)c1-c1c(-c2ccc(Cl)cc2)sc2cc(Cl)ccc12` [3-034], for which the “K: Italian ryegrass, herbicidal effect grade” value is 4 (Herbicidal rate of 70% or more and less than 90%).

For another assay, the system named is southern crabgrass. Nature of the assay: Test Example 4: herbicidal effect by soil treatment (Table 19, symbol F). The assay is classed as in vivo, southern crabgrass (Digitaria ciliaris). The following applies: amount of applied herbicide 320 g/ha. An outline of the steps: as §2
With `COc1ccccc1-c1sc2cc(F)ccc2c1-c1c(OS(=O)(=O)N(C)C)c(C)nn(C)c1=O` [3-028], the “F: southern crabgrass, herbicidal effect grade” value is 0 (Herbicidal rate of 5% or less (almost no effect)).

Consider `CCCC(=O)Oc1c(C)nn(C)c(=O)c1-c1c(-c2ccc(Cl)cc2)sc2cc(Cl)ccc12` [3-034], for which the “F: southern crabgrass, herbicidal effect grade” value is on record as 0 (Herbicidal rate of 5% or less (almost no effect)).

In the next assay the test system is chickweed. Kind of assay: Test Example 5: herbicidal effect by foliage application, plastic box (Table 20, symbol P). The assay is classed as in vivo, common chickweed (Stellaria media). The following applies: foliage application, 320 g/ha, three weeks after application. In short, it runs like this:
as §1
Take `COc1ccccc1-c1sc2cc(F)ccc2c1-c1c(OS(=O)(=O)N(C)C)c(C)nn(C)c1=O` [3-028]: the “P: chickweed, herbicidal effect grade” value was 5 (Herbicidal rate of 90% or more (almost completely withered)).

In the case of `CCCC(=O)Oc1c(C)nn(C)c(=O)c1-c1c(-c2ccc(Cl)cc2)sc2cc(Cl)ccc12` [3-034], the “P: chickweed, herbicidal effect grade” value is 5 (Herbicidal rate of 90% or more (almost completely withered)).

The test system of a further assay is velvetleaf. Nature of the assay: Test Example 5: herbicidal effect by foliage application, plastic box (Table 20, symbol M). The class given is in vivo, velvetleaf (Abutilon theophrasti). The following applies: foliage application, 320 g/ha, three weeks after application. An outline of the steps: as §1
For the molecule `COc1ccccc1-c1sc2cc(F)ccc2c1-c1c(OS(=O)(=O)N(C)C)c(C)nn(C)c1=O` [3-028], the “M: velvetleaf, herbicidal effect grade” value was 4 (Herbicidal rate of 70% or more and less than 90%).

With `CCCC(=O)Oc1c(C)nn(C)c(=O)c1-c1c(-c2ccc(Cl)cc2)sc2cc(Cl)ccc12` [3-034], the “M: velvetleaf, herbicidal effect grade” value is 4 (Herbicidal rate of 70% or more and less than 90%).

Another assay deals with oval-leafed pondweed. Kind of assay: Test Example 2: herbicidal activity, application during weed generation under submerged conditions (Table 17, symbol C). The assay is classed as in vivo, oval-leafed pondweed (Monochoria vaginalis). The following applies: AAH 320 g/ha; application during weed generation, submerged conditions. An outline of the steps: (§3)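 3-wk visual-criteria score after one water-surface dose. Emulsion formulation, water-diluted to set rate; applied at 1–2 leaf stage; alluvial soil, 4 cm standing water; seeds co-sown; greenhouse 25–30° C.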
In the case of `COc1ccccc1-c1sc2cc(F)ccc2c1-c1c(OS(=O)(=O)N(C)C)c(C)nn(C)c1=O` [3-028], the “herbicidal effect rating, C: oval-leafed pondweed” value is given as 0 (Herbicidal rate of 5% or less (almost no effect)).

As to `CCCC(=O)Oc1c(C)nn(C)c(=O)c1-c1c(-c2ccc(Cl)cc2)sc2cc(Cl)ccc12` [3-034], the “herbicidal effect rating, C: oval-leafed pondweed” value is recorded as 0 (Herbicidal rate of 5% or less (almost no effect)).

The next assay deals with lambsquarters. Kind of assay: Test Example 4: herbicidal effect by soil treatment (Table 19, symbol O). The following applies: amount of applied herbicide 320 g/ha. The class given is in vivo, lambsquarters (Chenopodium album). An outline of the steps:
as §2
For the molecule `COc1ccccc1-c1sc2cc(F)ccc2c1-c1c(OS(=O)(=O)N(C)C)c(C)nn(C)c1=O` [3-028], the “O: lambsquarters, herbicidal effect grade” value was 0 (Herbicidal rate of 5% or less (almost no effect)).

`CCCC(=O)Oc1c(C)nn(C)c(=O)c1-c1c(-c2ccc(Cl)cc2)sc2cc(Cl)ccc12` [3-034]: the “O: lambsquarters, herbicidal effect grade” value is reported as 0 (Herbicidal rate of 5% or less (almost no effect)).

A further assay relates to green foxtail. Nature of the assay: Test Example 5: herbicidal effect by foliage application, plastic box (Table 20, symbol G). The assay is classed as in vivo, green foxtail (Setaria viridis). The following applies: foliage application, 320 g/ha, three weeks after application. An outline of the steps: as §1
As to `COc1ccccc1-c1sc2cc(F)ccc2c1-c1c(OS(=O)(=O)N(C)C)c(C)nn(C)c1=O` [3-028], the “G: green foxtail, herbicidal effect grade” value is 4 (Herbicidal rate of 70% or more and less than 90%).

Consider `CCCC(=O)Oc1c(C)nn(C)c(=O)c1-c1c(-c2ccc(Cl)cc2)sc2cc(Cl)ccc12` [3-034], for which the “G: green foxtail, herbicidal effect grade” value was 4 (Herbicidal rate of 70% or more and less than 90%).

Another assay concerns late watergrass. Nature of the assay: Test Example 2: herbicidal activity, application during weed generation under submerged conditions (Table 17, symbol A). The assay is classed as in vivo, late watergrass (Echinochloa oryzicola). The following applies: AAH 320 g/ha; application during weed generation, submerged conditions. An outline of the steps: as §3
With `COc1ccccc1-c1sc2cc(F)ccc2c1-c1c(OS(=O)(=O)N(C)C)c(C)nn(C)c1=O` [3-028], the “herbicidal effect rating, A: late watergrass” value is 2 (Herbicidal rate of 20% or more and less than 40%).

With `CCCC(=O)Oc1c(C)nn(C)c(=O)c1-c1c(-c2ccc(Cl)cc2)sc2cc(Cl)ccc12` [3-034], the “herbicidal effect rating, A: late watergrass” value is 3 (Herbicidal rate of 40% or more and less than 70%).

The next assay concerns blackgrass. Kind of assay: Test Example 4: herbicidal effect by soil treatment (Table 19, symbol J). The following applies: amount of applied herbicide 320 g/ha. The assay is classed as in vivo, blackgrass (Alopecurus myosuroides). In short, it runs like this:
as §2
`COc1ccccc1-c1sc2cc(F)ccc2c1-c1c(OS(=O)(=O)N(C)C)c(C)nn(C)c1=O` [3-028]: the “J: blackgrass, herbicidal effect grade” value is listed as 0 (Herbicidal rate of 5% or less (almost no effect)).

For `CCCC(=O)Oc1c(C)nn(C)c(=O)c1-c1c(-c2ccc(Cl)cc2)sc2cc(Cl)ccc12` [3-034], the “J: blackgrass, herbicidal effect grade” value is given as 0 (Herbicidal rate of 5% or less (almost no effect)).

In another assay the test system is velvetleaf. Nature of the assay: Test Example 4: herbicidal effect by soil treatment (Table 19, symbol M). The class given is in vivo, velvetleaf (Abutilon theophrasti). The following applies: amount of applied herbicide 320 g/ha. In short, it runs like this: as §2
Regarding `COc1ccccc1-c1sc2cc(F)ccc2c1-c1c(OS(=O)(=O)N(C)C)c(C)nn(C)c1=O` [3-028], the “M: velvetleaf, herbicidal effect grade” value is reported as 0 (Herbicidal rate of 5% or less (almost no effect)).

Turning to `CCCC(=O)Oc1c(C)nn(C)c(=O)c1-c1c(-c2ccc(Cl)cc2)sc2cc(Cl)ccc12` [3-034], the “M: velvetleaf, herbicidal effect grade” value is 3 (Herbicidal rate of 40% or more and less than 70%).

The next assay has as its system persian speedwell. Nature of the assay: Test Example 4: herbicidal effect by soil treatment (Table 19, symbol R). The class given is in vivo, Persian speedwell (Veronica persica). The following applies: amount of applied herbicide 320 g/ha. In short, it runs like this:
as §2
`COc1ccccc1-c1sc2cc(F)ccc2c1-c1c(OS(=O)(=O)N(C)C)c(C)nn(C)c1=O` [3-028]: the “R: persian speedwell, herbicidal effect grade” value is 0 (Herbicidal rate of 5% or less (almost no effect)).

Consider `CCCC(=O)Oc1c(C)nn(C)c(=O)c1-c1c(-c2ccc(Cl)cc2)sc2cc(Cl)ccc12` [3-034], for which the “R: persian speedwell, herbicidal effect grade” value was 4 (Herbicidal rate of 70% or more and less than 90%).

A further assay concerns barnyard grass. Kind of assay: Test Example 3: herbicidal effect by foliage application, Wagner pot (Table 18, symbol H). The class given is in vivo, barnyard grass (Echinochloa crus-galli). The following applies: 320 g/ha. In short, it runs like this: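 Plants were sown in alluvial soil held under 0.1–0.5 cm standing water and grown 14 days in a greenhouse at 25–30 °C. An emulsifiable formulation, water-diluted to the set dose, was then sprayed onto the foliage, and effects were scored three weeks later using previously defined criteria.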
Turning to `CCCC(=O)Oc1c(C)nn(C)c(=O)c1-c1c(-c2ccc(Cl)cc2)sc2cc(Cl)ccc12` [3-034], the “herbicidal effect on barnyard grass (H)” value is 5 (Herbicidal rate of 90% or more (almost completely withered)).

The same assay, now with this note: amount of applied herbicide 320 g/ha.
For the molecule `COc1ccccc1-c1sc2cc(F)ccc2c1-c1c(OS(=O)(=O)N(C)C)c(C)nn(C)c1=O` [3-028], the “herbicidal effect on H: barnyard grass” value was 4 (Herbicidal rate of 70% or more and less than 90%).

A further assay concerns late watergrass. Kind of assay: Test Example 1: herbicidal activity, application before weed generation under submerged conditions (Table 16, symbol A). The assay is classed as in vivo, late watergrass (Echinochloa oryzicola). The following applies: amount of applied herbicide 320 g/ha. In short, it runs like this: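 Emulsion formulation, water-diluted to set dose, was put onto the flooded surface (4 cm depth, alluvial soil) the same day weeds were sown and 2.5-leaf rice transplanted. After 3 weeks at 25-30 °C under glass, each species was rated 0 (≤5% kill) to 5 (≥90% kill).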
Turning to `COc1ccccc1-c1sc2cc(F)ccc2c1-c1c(OS(=O)(=O)N(C)C)c(C)nn(C)c1=O` [3-028], the “Herbicidal effect, A: late watergrass” value is 2 (Herbicidal rate of 20% or more and less than 40%).

`CCCC(=O)Oc1c(C)nn(C)c(=O)c1-c1c(-c2ccc(Cl)cc2)sc2cc(Cl)ccc12` [3-034]: the “Herbicidal effect, A: late watergrass” value is 3 (Herbicidal rate of 40% or more and less than 70%).

The test system of the next assay is barnyard grass. Nature of the assay: Test Example 5: herbicidal effect by foliage application, plastic box (Table 20, symbol H). The class given is in vivo, barnyard grass (Echinochloa crus-galli). The following applies: foliage application, 320 g/ha, three weeks after application. In short, it runs like this: as §1
As for `COc1ccccc1-c1sc2cc(F)ccc2c1-c1c(OS(=O)(=O)N(C)C)c(C)nn(C)c1=O` [3-028], the “H: barnyard grass, herbicidal effect grade” value is 2 (Herbicidal rate of 20% or more and less than 40%).

Consider `CCCC(=O)Oc1c(C)nn(C)c(=O)c1-c1c(-c2ccc(Cl)cc2)sc2cc(Cl)ccc12` [3-034], for which the “H: barnyard grass, herbicidal effect grade” value was 3 (Herbicidal rate of 40% or more and less than 70%).
